Source: US7112598B2, “κ opioid receptor agonist comprising 2-phenylbenzothiazoline derivative” (Santen Pharmaceutical Co., Ltd., priority 2002, dated 2006)
Counter-ions that a name gives are not always drawn.

Assays:
human κ opioid receptor = human κ opioid receptor (Homo sapiens, UniProt P41145); assay: κ opioid receptor agonist activity test in GTP binding activity measurement system ([35S]GTPγS binding); format: biochemical; conditions: test compound concentration 10^−9 M, binding of 10^−6 M (−)-U50488 = 100%, human κ opioid receptor membrane preparation, average of duplicate
Procedure: 1. κ Opioid Receptor Agonist Activity Tests in GTP Binding Activity Measurement System
Jinmin Zhu et al. reported a method of evaluating agonist activities of drugs on a κ opioid receptor wherein guanosine 5′-triphosphate (GTP) radiolabelled with a human κ opioid receptor is used in J. Pharmaco. Exp. Ter., 282, 676–684 (1997). κ opioid receptor agonist activities (actions) of test compounds were evaluated according to the method described in the above-mentioned literature.
N-2-Hydroxyethylpiperazine-N′-2-ethanesulfonic acid (HEPES, 4.77 g), magnesium chloride hexahydrate (2.03 g), sodium chloride (5.84 g), disodium […] (EDTA•2Na, 0.37 g), DL-dithiothreitol (DTT, 0.15 g) and bovine serum albumin (BSA, 1.0 g) were dissolved in ultrapure water, pH was adjusted to 7.4 with sodium hydroxide, and further ultrapure water was added to the mixture so that a total amount was one liter to prepare a incubation buffer.
Nine volume of the incubation buffer was added to one volume of dimethyl sulfoxide (DMSO) to prepare a 10% DMSO-incubation buffer.
Tris(hydroxymethyl)aminomethane hydrochloride (TRIZA-HCl, 66.1 g) and Tris(hydroxymethyl)aminomethane (TRIZA-Base, 9.7 g) were dissolved in ultrapure water so that a total amount was 10 liters to prepare a 50 mM Tris-hydrochloric acid buffer (pH 7.4).
A human κ opioid receptor membrane preparation (100 unit/ml) was diluted 60 times with the incubation buffer under ice-cold to prepare a human κ opioid receptor membrane preparation solution. The membrane preparation solution was preserved under ice-cold.
A test compound was dissolved in 100% DMSO to prepare a 10^−3 M test compound solution, and then the incubation buffer was added to the 10^−3 M test compound solution to prepare a 10^−4 M test compound solution. Next, the 10% dimethyl sulfoxide-incubation buffer was added to the 10^−4 M test compound solution to prepare a 10^−5 M, 10^−6 M, 10^−7 M, 10^−8 M or 10^−9 M test compound solution.
A drug (−)-U50488 (J. Pharmacol. Exp. Ther., 224, 7–12 (1983)), which is known as a κ opioid receptor agonist, was used as a positive control drug in the tests.
(−)-U-50488 was dissolved in 100% DMSO to prepare a 10^−3 M positive control drug solution, and then the incubation buffer was added to the 10^−3 M positive control drug solution to prepare a 10^−4 M positive control drug solution. Next, the 10% DMSO-incubation buffer was added to the 10^−4 M positive control drug solution to prepare a 10^−6 M positive control drug solution.
GDP was dissolved in ultrapure water to prepare a 10^−3 M GDP solution, and the incubation buffer was added to the 10^−3 M GDP solution to prepare a 10^−5 M GDP solution.
10^−3 M [^35S]GTPγS was diluted with the incubation buffer to prepare 10^−9 M radiolabelled reagent.
• 1. The incubation buffer (50 μl), the 10^−5 M GDP solution (50 μl), the human κ opioid receptor membrane preparation solution (300 μl), the test compound solution and the 10^−9 M radiolabelled reagent (50 μl) were put into a glass tube, and then the mixture was incubated at 30° C. for 60 minutes. • 2. The 50 mM Tris-hydrochloric acid buffer (pH 7.4) was added to the mixture to stop the reaction, the reaction mixture was suction-filtered with a GF/B filter, and then the residue on the GF/B filter was washed with the 50 mM Tris-hydrochloric acid buffer (3 ml) three times. • 3. The GF/B filter was air-dried, and then the residue on the GF/B filter was taken out with an antomatic dispenser and transfered into a vial. • 4. Scintisol EX-H (5 ml) was introduced into the vial to prepare a sample solution, and then radioactivity in the sample solution was measured with a liquid scintillation counter for one minute. The radioactivity was expressed in “cpm” (counts per minute). Calculation Formula of κ Opioid Receptor Agonist Activity
Each agonist activity of the test compound on the κ opioid receptor was expressed in [^35S]GTPγS binding % when [^35S]GTPγS binding of 10^−6 M (−)-U50488 was 100%. […]

[1] = test system: mouse acetic acid writhing; assay: Antinociceptive action test by mouse acetic acid writhing method; format: in vivo; conditions: 30 mg/kg oral, 20 min before 0.7% acetic acid i.p., writhing counted 10 to 20 minutes after acetic acid, vs vehicle group, average of seven samples; for inhibition in vivo at 30 mg/kg: read-out: Inhibition rate (%)
Procedure: 2. Antinociceptive Action Tests by Mouse Acetic Acid Writhing Method
Accordingly, antinociceptive action tests of test compounds were carried out using the mouse acetic acid writhing method, and analgesic effects of the test compounds were evaluated.
Twenty minutes after oral administration of the test compound (30 mg/kg), the 0.7% acetic acid solution was administered intraperitoneally in a rate of 0.1 ml per 10 g of mouse weight.
Inhibition rates were calculated according to the following equation.
The antinociceptive action of the test compound was expressed in an inhibition rate to writhing numbers of a vehicle group.

Chain of human κ opioid receptor (P41145 whole entry): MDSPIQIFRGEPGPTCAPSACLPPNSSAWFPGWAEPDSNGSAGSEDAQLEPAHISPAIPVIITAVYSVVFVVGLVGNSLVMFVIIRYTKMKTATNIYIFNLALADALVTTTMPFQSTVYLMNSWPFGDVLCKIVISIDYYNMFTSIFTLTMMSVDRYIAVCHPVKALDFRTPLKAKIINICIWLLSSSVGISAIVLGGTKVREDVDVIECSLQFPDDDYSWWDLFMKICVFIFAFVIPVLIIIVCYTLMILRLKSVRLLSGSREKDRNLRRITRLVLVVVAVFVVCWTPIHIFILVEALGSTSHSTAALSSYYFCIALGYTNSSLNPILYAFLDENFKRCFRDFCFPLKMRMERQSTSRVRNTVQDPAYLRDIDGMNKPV

Row | Compound | [^35S]GTP γ S binding % (human κ opioid receptor; Hydrochloride) [%] | Inhibition rate (%) ([1]; Hydrochloride, 30 mg/kg) | [^35S]GTP γ S binding % (human κ opioid receptor) [%] | Inhibition rate (%) [1] [%] | other results
1 | COc1ccc(OCCCN(CCO)C(C)C)c(C2Sc3cc(Cl)ccc3N2C(C)=O)c1 (single isomer, unassigned; (+)) [Compound No. 9-2, (+)-3-Acetyl-6-chloro-2-[2-(3-(N-(2-hydroxyethyl)-N-isopropylamino)-propoxy)-5-methoxyphenyl]benzothiazoline Hydrochloride] | 103.9 | 81.2 | – | – | –
2 | COc1ccc(OCCCN(CCO)C(C)C)c(C2Sc3cc(Cl)ccc3N2C(C)=O)c1 (stereo not drawn) [Compound No. 3-2, 3-Acetyl-6-chloro-2-[2-(3-(N-(2-hydroxyethyl)-N-isopropylamino)-propoxy)-5-methoxyphenyl]benzothiazoline Hydrochloride] | 66.5 | 76.1 | – | – | –
3 | COc1ccc(OCCCN(CCO)C(C)C)c(C2Sc3ccc(Cl)cc3N2C(C)=O)c1 (stereo not drawn) [Compound No. 5-3, 3-Acetyl-5-chloro-2-[2-(3-(N-(2-hydroxyethyl)-N-isopropylamino)-propoxy)-5-methoxyphenyl]benzothiazoline Hydrochloride] | – | – | 51.2 | 51.6 | –
4 | COCOCCN(CCCOc1ccc(OC)cc1C1Sc2cc(Cl)ccc2N1C(C)=O)C(C)C (stereo not drawn) [Compound No. 20-1, 3-Acetyl-6-chloro-2-[2-(3-(N-isopropyl-(N-(2-methoxymethyloxy-ethyl))amino)propoxy)-5-methoxyphenyl]benzothiazoline] | – | – | 65.1 | 94.8 | –
5 | COCCN(CCCOc1ccc(OC)cc1C1Sc2cc(Cl)ccc2N1C(C)=O)C(C)C (stereo not drawn) [Compound No. 3-25, 3-Acetyl-6-chloro-2-[2-(3-(N-isopropyl-N-(2-methoxyethyl)amino)-propoxy)-5-methoxyphenyl]benzothiazoline Hydrochloride] | – | – | 67.9 | 91.0 | –
6 | COCCN(CCCOc1ccc(OC)cc1C1Sc2cc(Cl)ccc2N1C(C)=O)C(C)C.Cl (single isomer, unassigned; (+)) [Compound No. 9-1, (+)-3-Acetyl-6-chloro-2-[2-(3-(N-isopropyl-N-(2-methoxyethyl)amino)-propoxy)-5-methoxyphenyl]benzothiazoline Hydrochloride] | 93.2 | – | – | – | inhibition in vivo at 30 mg/kg [1]: 97.7%
7 | CCOCCN(CCCOc1ccc(OC)cc1C1Sc2cc(Cl)ccc2N1C(C)=O)C(C)C (stereo not drawn) [Compound No. 3-33, 3-Acetyl-6-chloro-2-[2-(3-(N-(2-ethoxyethyl)-N-isopropylamino)-propoxy)-5-methoxyphenyl]benzothiazoline Hydrochloride] | 75.8 | 99.5 | – | – | –
8 | CCOCCN(CCCOc1ccc(OC)cc1C1Sc2ccccc2N1C(C)=O)C(C)C (single isomer, unassigned; (+)) [Compound No. 11-1, (+)-3-Acetyl-2-[2-(3-(N-(2-ethoxyethyl)-N-isopropylamino)propoxy)-5-methoxyphenyl]benzothiazoline Hydrochloride] | – | – | – | – | activation at 0.001 µM (human κ opioid receptor; read-out: [^35S]GTP γ S binding %): 66.8%; inhibition in vivo at 30 mg/kg [1]: 98.3%
9 | CCOCCN(CCCOc1ccc(OC)cc1C1Sc2cc(Cl)ccc2N1C(C)=O)C(C)C (single isomer, unassigned; (+)) [Compound No. 9-3, (+)-3-Acetyl-6-chloro-2-[2-(3-(N-(2-ethoxyethyl)-N-isopropylamino)-propoxy)-5-methoxyphenyl]benzothiazoline Hydrochloride] | 117.5 | 100.0 | – | – | –
